This passage reports IC50 and melting point results from patent publication US7943618B2, “Btk protein kinase inhibitors” (Roche Palo Alto LLC, priority 2007, dated 2011).

Data set [1] has as its target T1, Btk enzyme (His-tagged, full-length) (Homo sapiens, UniProt Q06187).
T1 construct: 5-10 nM Btk enzyme (His-tagged, full-length); His
As to the kind of experiment: Bruton's Tyrosine Kinase (Btk) Inhibition Assay (33P filtration capture). The data set is classed as biochemical. The following applies: Bruton's tyrosine kinase Assay (Example 34), 100 μM ATP.

In the next data set the test system is Ramos cells. Put plainly: Inhibition of B-cell Activation - B cell FLIPR assay in Ramos cells. The data set is classed as cell-based. The following applies: Homo sapiens, 0.5 h, intracellular calcium increase stimulated by 10 μg/mL anti-IgM, compounds incubated 30 min at RT. The text has this:
Inhibition of B-cell Activation—B cell FLIPR assay in Ramos cells
The B cell FLIPR assay is a cell based functional method of determining the effect of potential inhibitors of the intracellular calcium increase from stimulation by an anti-IgM antibody. Ramos cells (human Burkitt's lymphoma cell line. ATCC-No. CRL-1596) were cultivated in Growth Media (described below). One day prior to assay, Ramos cells were resuspended in fresh growth media (same as above) and set at a concentration of 0.5×10^6/mL in tissue culture flasks. On day of assay, cells are counted and set at a concentration of 1×10^6/mL1 in growth media supplemented with 1 μM FLUO-3AM(TefLabs Cat-No. 0116, prepared in anhydrous DMSO and 10% Pluronic acid) in a tissue culture flask, and incubated at 37° C. (4% CO2) for one h. To remove extracellular dye, cells were collected by centrifugation (5 min, 1000 rpm), resuspended in FLIPR buffer (described below) at 1×10^6 cells/mL and then dispensed into 96-well poly-D-lysine coated black/clear plates (BD Cat-No. 356692) at 1×10^5 cells per well. Test compounds were added at various concentrations ranging from 100 μM to 0.03 μM (7 concentrations, details below), and allowed to incubate with cells for 30 min at RT. Ramos cell Ca^2+ signaling was stimulated by the addition of 10 μg/mL anti-IgM (Southern Biotech, Cat-No. 2020-01) and measured on a FLIPR (Molecular Devices, captures images of 96 well plates using a CCD camera with an argon laser at 480nm excitation).
Growth Medium: RPMI 1640 medium with L-glutamine (Invitrogen, Cat-No. 61870-010), 10% Fetal Bovine Serum (FBS, Summit Biotechnology Cat-No. FP-100-05); 1 mM Sodium Pyruvate (Invitrogen Cat. No. 11360-070).
FLIPR buffer: HBSS (Invitrogen, Cat-No. 141175-079), 2 mM CaCl2 (Sigma Cat-No. C-4901), HEPES (Invitrogen, Cat-No. 15630-080), 2.5mM Probenecid (Sigma, Cat-No. P-8761), 0.1% BSA (Sigma, Cat-No. A-7906), 11 mM Glucose (Sigma, Cat-No. G-7528)
Compound dilution details:
In order to achieve the highest final assay concentration of 100 μM, 24 μL of 10 mM compound stock solution (made in DMSO) is added directly to 576 μL of FLIPR buffer. The test compounds are diluted in FLIPR Buffer (using Biomek 2000 robotic pipettor) resulting in the following dilution scheme: vehicle, 1.00×10^−4 M, 1.00×10^−5, 3.16×10^−6, 1.00×10^−6, 3.16×10^−7, 1.00×10^−7, 3.16×10^−8.
Intracellular increases in calcium were reported using a max-min statistic (subtracting the resting baseline from the peak caused by addition of the stimulatory antibody using a Molecular Devices FLIPR control and statistic exporting software. The IC50 was determined using a non-linear curve fit (GraphPad Prism software). Representative results are in Table III.

T1 sequence (Q06187 whole entry): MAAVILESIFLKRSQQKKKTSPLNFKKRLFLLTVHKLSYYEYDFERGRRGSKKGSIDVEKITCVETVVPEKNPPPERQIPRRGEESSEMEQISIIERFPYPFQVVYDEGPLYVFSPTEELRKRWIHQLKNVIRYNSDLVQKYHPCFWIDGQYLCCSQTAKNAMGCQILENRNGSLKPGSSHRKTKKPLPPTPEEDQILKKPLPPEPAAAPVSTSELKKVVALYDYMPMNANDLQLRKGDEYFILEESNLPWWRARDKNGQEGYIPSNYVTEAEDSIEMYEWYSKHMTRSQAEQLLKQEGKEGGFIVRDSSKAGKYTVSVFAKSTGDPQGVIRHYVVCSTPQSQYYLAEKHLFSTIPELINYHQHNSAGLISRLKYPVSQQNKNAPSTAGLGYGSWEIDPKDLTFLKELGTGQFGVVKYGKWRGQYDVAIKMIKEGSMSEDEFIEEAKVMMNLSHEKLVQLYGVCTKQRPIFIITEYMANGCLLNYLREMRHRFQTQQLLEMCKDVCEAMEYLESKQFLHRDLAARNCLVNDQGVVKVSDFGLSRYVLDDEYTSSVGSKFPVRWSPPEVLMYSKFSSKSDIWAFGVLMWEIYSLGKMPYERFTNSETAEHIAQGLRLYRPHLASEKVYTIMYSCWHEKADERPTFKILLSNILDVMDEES

In general, IC50 refers to the concentration at which inhibition is half-maximal. Broadly, the melting point is the temperature, or range, at which the solid turns liquid. In turn, `Cc1c(-c2cc(Nc3ccc(C(=O)N4CCOCC4)cn3)c(=O)n(C)n2)cccc1-n1cnc2cc(C(C)(C)C)ccc2c1=O` [Compound I-8, 7-tert-Butyl-3-(2-methyl-3-{1-methyl-5-[5-(morpholine-4-carbonyl)-pyridin-2-ylamino]-6-oxo-1,6-dihydro-pyridazin-3-yl}-phenyl)-3H-quinazolin-4-one] had a melting point of 188.5 to 191 °C. In data set [1] (Table I pyridazinones), this compound gave a 50% inhibitory concentration (IC50) of 116 nM. In the data set on Ramos cells, the IC50 worked out at 205 nM.
For `COc1nccc(Nc2cc(-c3cccc(NC(=O)c4ccc(C(C)(C)C)cc4)c3C)nn(C)c2=O)n1` [Compound I-17] the same measures were 262 to 264 °C, 104 nM and 415 nM.
As to `Cn1nc(-c2cccc(CC(=O)NCCOC(C)(C)C)c2)cc(Nc2ccc(C(=O)N3CCOCC3)cn2)c1=O` [Compound I-32], the melting point was in the range of 220 to 221 °C. This compound also came in with an IC50 in data set [1] (Table I pyridazinones) of 820 nM. Besides, the half-inhibitory concentration (IC50) in the data set with Ramos cells stood at 32 nM.
As for `Cc1c(NC(=O)c2ccc(C(C)(C)C)cc2)cccc1-c1cc(Nc2ccc(C(=O)N3CCOCC3)cn2)c(=O)n(C)c1` [II-2, 4-tert-Butyl-N-(2-methyl-3-{1-methyl-5-[5-(morpholine-4-carbonyl)-pyridin-2-ylamino]-6-oxo-1,6-dihydro-pyridin-3-yl}-phenyl)-benzamide], the IC50 in the data set with Ramos cells was 67 nM.
For `CNC(=O)Nc1cc(-c2cccc(NC(=O)c3ccc(N(C)C)cc3)c2C)cn(C)c1=O` [II-13], the melting point lay within 291 to 292 °C. Moreover, the IC50 in data set [1] (Table II pyridinones) turned out to be 96 nM. Moreover, in the data set with Ramos cells, the IC50 amounted to 552 nM.
Regarding `CCNC(=O)Nc1cc(-c2cccc(NC(=O)c3ccc(C(C)(C)C)cc3)c2CO)cn(C)c1=O` [II-56, 4-tert-Butyl-N-{3-[5-(3-ethyl-ureido)-1-methyl-6-oxo-1,6-dihydro-pyridin-3-yl]-2-hydroxymethyl-phenyl}-benzamide], the IC50 is less than 10 nM in data set [1] (Table II pyridinones) and 4 nM in the data set with Ramos cells.
As for `Cn1cc(-c2cccc(NC(=O)c3ccc(C(C)(C)C)cc3)c2CO)cc(Nc2ccc(C(=O)N3CCOCC3)cn2)c1=O` [II-58], the IC50 in the data set with Ramos cells stood at 15 nM.
